In US5457105A, “Quinazoline derivatives useful for treatment of neoplastic disease” (Zeneca Limited, priority 1992, dated 1995):

Assays:
[1] = tested on: human naso-pharyngeal cancer cell line KB; assay: Test (b): in vitro inhibition of growth of the human naso-pharyngeal cancer cell line KB; format: cell-based; conditions: KB cells, EGF (10 ng/ml), 3 days, MTT
Experimental: (b) An in vitro assay which determines the ability of a test compound to inhibit the growth of the human naso-pharyngeal cancer cell line KB.
KB cells were seeded into wells at a density of 1×10^4 -1.5×10^4 cells per well and grown for 24 hours in DMEM supplemented with 5% FCS (charcoal-stripped). Cell growth was determined after incubation for 3 days by the extent of metabolism of MTT tetrazolium dye to furnish a bluish colour. Cell growth was then determined in the presence of EGF (10 ng/ml) or in the presence of EGF (10 ng/ml) and a test compound at a range of concentrations. An IC50 value could then be calculated.

receptor tyrosine kinase = target: T1, receptor tyrosine kinase (Homo sapiens, UniProt P00533); assay: Test (a): in vitro inhibition of the enzyme receptor tyrosine kinase (from A-431 cells); format: biochemical; conditions: EGF, 25° C., 10 minutes
T1 construct: obtained in partially purified form from A-431 cells; endogenous in cells; host or cells: A-431 cells (human vulval carcinoma); detergent-solubilised membrane fraction
T1 sequence (P00533 25-1210): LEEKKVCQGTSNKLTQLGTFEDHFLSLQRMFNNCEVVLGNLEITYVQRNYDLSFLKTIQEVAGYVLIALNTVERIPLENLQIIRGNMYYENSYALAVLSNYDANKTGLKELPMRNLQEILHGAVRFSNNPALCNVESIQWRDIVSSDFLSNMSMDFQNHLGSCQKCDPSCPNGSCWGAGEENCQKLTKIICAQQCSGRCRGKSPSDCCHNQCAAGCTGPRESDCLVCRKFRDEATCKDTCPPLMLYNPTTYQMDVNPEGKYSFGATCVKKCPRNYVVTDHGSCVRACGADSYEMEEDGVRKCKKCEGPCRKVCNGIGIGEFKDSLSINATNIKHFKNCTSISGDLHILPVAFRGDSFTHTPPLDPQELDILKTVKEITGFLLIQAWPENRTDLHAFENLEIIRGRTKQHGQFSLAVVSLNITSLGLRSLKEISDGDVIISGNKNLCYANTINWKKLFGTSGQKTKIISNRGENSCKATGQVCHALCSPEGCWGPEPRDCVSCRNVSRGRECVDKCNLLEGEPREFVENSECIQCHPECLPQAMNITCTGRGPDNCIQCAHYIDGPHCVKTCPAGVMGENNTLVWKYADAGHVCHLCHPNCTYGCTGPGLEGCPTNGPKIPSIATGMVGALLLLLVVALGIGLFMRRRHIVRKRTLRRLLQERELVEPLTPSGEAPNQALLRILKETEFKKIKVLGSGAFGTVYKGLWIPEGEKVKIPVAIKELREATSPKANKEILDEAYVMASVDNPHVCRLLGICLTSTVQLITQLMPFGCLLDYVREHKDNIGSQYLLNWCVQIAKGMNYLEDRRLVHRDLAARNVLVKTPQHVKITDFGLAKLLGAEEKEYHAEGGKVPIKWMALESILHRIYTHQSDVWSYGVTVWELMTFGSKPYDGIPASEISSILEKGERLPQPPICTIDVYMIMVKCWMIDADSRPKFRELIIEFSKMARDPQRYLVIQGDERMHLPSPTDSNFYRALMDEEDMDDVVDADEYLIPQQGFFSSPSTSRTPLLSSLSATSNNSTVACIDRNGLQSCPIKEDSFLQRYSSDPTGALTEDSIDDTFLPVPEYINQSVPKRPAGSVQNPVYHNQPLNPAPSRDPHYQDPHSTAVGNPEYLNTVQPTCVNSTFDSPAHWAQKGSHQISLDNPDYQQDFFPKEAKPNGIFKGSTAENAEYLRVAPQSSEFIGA
Experimental: (a) An in vitro assay which determines the ability of a test compound to inhibit the enzyme receptor tyrosine kinase. Receptor tyrosine kinase was obtained in partially purified form from A-431 cells (derived from human vulval carcinoma) by procedures related to those described by Carpenter et al., J. Biol. Chem., 1979, 254, 4884, Cohen et al., J. Biol. Chem., 1982, 257, 1523 and by Braun et al., J. Biol. Chem., 1984, 259, 2051.
A-431 cells were grown to confluence using Dulbecco's modified Eagle's medium (DMEM) containing 5% fetal calf serum (FCS). The obtained cells were homogenised in a hypotonic borate/EDTA buffer at pH 10.1. The homogenate was centrifuged at 400 g for 10 minutes at 0°-4° C. The supernatant was centrifuged at 25,000 g for 30 minutes at 0°-4° C. The pelleted material was suspended in 30 mM Hepes buffer at pH 7.4 containing 5% glycerol, 4 mM benzamidine and 1% Triton X-100, stirred for 1 hour at 0°-4° C., and recentrifuged at 100,000 g for 1 hour at 0°-4° C. The supernatant, containing solubilised receptor tyrosine kinase, was stored in liquid nitrogen.
For test purposes 40 μl of the enzyme solution so obtained was added to a mixture of 400 μl of a mixture of 150 mM Hepes buffer at pH 7.4, 500 μM sodium orthovanadate, 0.1% Triton X-100, 10% glycerol, 200 μl water, 80 μl of 25 mM DTT and 80 µl of a mixture of 12.5 mM manganese chloride, 125 mM magnesium chloride and distilled water. There was thus obtained the test enzyme solution.
Each test compound was dissolved in dimethylsulphoxide (DMSO) to give a 50 mM solution which was diluted with 40 mM Hepes buffer containing 0.1% Triton X-100, 10% glycerol and 10% DMSO to give a 500 μM solution. Equal volumes of this solution and a solution of epidermal growth factor (EGF; 20 μg/ml) were mixed.
[γ-^32 P]ATP (3000 Ci/mM, 250 μCi) was diluted to a volume of 2 ml by the addition of a solution of ATP (100 μM) in distilled water. An equal volume of a 4 mg/ml solution of the peptide Arg-Arg-Leu-Ile-Glu-Asp-Ala-Glu-Tyr-Ala-Ala-Arg-Gly in a mixture of 40 mM Hepes buffer at pH 7.4, 0.1% Triton X-100 and 10% glycerol was added.
The test compound/EGF mixture solution (5 μl) was added to the test enzyme solution (10 μl) and the mixture was incubated at 0°-4° C. for 30 minutes. The ATP/peptide mixture (10 μl) was added and the mixture was incubated at 25° C. for 10 minutes. The phosphorylation reaction was terminated by the addition of 5% trichloroacetic acid (40 μl) and bovine serum albumin (BSA; 1 mg/ml, 5 μl). The mixture was allowed to stand at 4° C. for 30 minutes and then centrifuged. […] Radioactivity present in the filter paper was measured using a liquid scintillation counter (Sequence A). […]
The extent of inhibition was then determined at a range of concentrations of test compound to give an IC50 value.

[2] = tested on: liver hepatocyte growth caused by the administration of the growth factor TGFα; assay: Test (c): in vivo inhibition of TGFα-stimulated liver hepatocyte growth in male rats; parameters: species or system rat; conditions: usually orally, TGFα 400 μg/kg subcutaneously, inhibition of BrdU uptake, approximate ED50
Experimental: Cell-growth in the control and test animals is determined as follows: On the morning of the day after the dosing of the test compound (or 0.5% polysorbate in the control group), the animals are dosed with bromodeoxyuridine (BrdU; 100 mg/kg intraperitoneally). The animals are killed four hours later and the livers are excised. […] Further tests were carried out using a range of doses of the test compounds to allow the calculation of an approximate ED50 value for the inhibition of liver hepatocyte proliferation as determined by inhibition of the uptake of BrdU.

[3] = tested on: another carcinoma which does not express EGF receptor tyrosine kinase; conditions: carcinoma not expressing EGF receptor tyrosine kinase; Toi et al. 1990; cited from earlier work
[4] = tested on: human mammary carcinoma which expresses epidermal growth factor (EGF) receptor tyrosine kinase; conditions: athymic nude mice; EGF receptor tyrosine kinase expressing; Toi et al. 1990; cited from earlier work

| SMILES | IC50 ([1]; Homo sapiens, 72 h) | IC50 (receptor tyrosine kinase) | also measured |
| --- | --- | --- | --- |
| COc1cc2ncnc(Nc3cccc(C)c3)c2cc1OC [6,7-dimethoxy-4-(3'-methylanilino)quinazoline] | 50 nM | 5 nM | ED50 ([2]; Rattus norvegicus, Hepatocyte, po): < 5 mg/kg |
| Cc1cccc(Nc2ncnc3ccc(N)cc23)c1 [6-amino-4-(3'-methylanilino)quinazoline] |  |  | IC50 [1]: 1000 nM; ED50 in Test (c) [2]: < 5 mg/kg |
| COc1cc2ncnc(Nc3cccc(C(F)(F)F)c3)c2cc1OC [6,7-dimethoxy-4-(3'-trifluoromethylanilino)quinazoline] | 300 nM | 10 nM |  |
| COc1cc2c(Nc3cccc(C)c3)ncnc2cc1OCCO [7-(2-hydroxyethoxy)-6-methoxy-4-(3'-methylanilino)quinazoline] | 140 nM | 5 nM |  |
| O=CN/C=C/c1cc(O)ccc1O [erbstatin] |  |  | growth of another carcinoma [3]: without effect; growth of transplanted human mammary carcinoma [4]: specifically attenuates the growth |
| CC(=O)Nc1ccc2ncnc(Nc3cccc(C)c3)c2c1 [6-acetamido-4-(3'-methylanilino)quinazoline] | 650 nM | 10 nM |  |
